The record followed here is ChEMBL document CHEMBL1139716, “Naphtho[2,3-b][1,4]-thiazine-5,10-diones and 3-substituted-1,4-dioxo-1,4-dihydronaphthalen-2-yl-thioalkanoate derivatives: synthesis and biological evaluation as potential antibacterial and antifungal agents” (Bioorg Med Chem Lett, 2006).

For one test, the system named is Enterococcus faecalis. Nature of the test: Antibacterial activity against Streptococcus faecalis by broth microdilution technique. Particulars: Enterococcus faecalis; for IC50: read-out: IC50. The test is classed as functional, organism-based.
The test system of the next test is Trichophyton benhamiae. In words: Antifungal activity against Trichophyton mentagrophytes by broth microdilution technique. The test is classed as functional, organism-based, Arthroderma benhamiae.
In a further test the test system is Pseudomonas aeruginosa. In words: Antibacterial activity against Pseudomonas aeruginosa by broth microdilution technique. Particulars: Pseudomonas aeruginosa; for IC50: read-out: IC50. The test is classed as functional, organism-based.
The next test relates to Escherichia coli. Nature of the test: Antibacterial activity against Escherichia coli by broth microdilution technique. Particulars: Escherichia coli; for IC50: read-out: IC50. Format: functional, organism-based.
In another test the test system is Aspergillus fumigatus. In words: Antifungal activity against Aspergillus fumigatus by broth microdilution technique. The test is classed as functional, organism-based.
A further test relates to Klebsiella pneumoniae. Nature of the test: Antibacterial activity against Klebsiella pneumoniae by broth microdilution technique. To be noted: Klebsiella pneumoniae; for IC50: read-out: IC50. The test is classed as functional, organism-based.
The subject of another test is Staphylococcus aureus. In words: Antibacterial activity against Staphylococcus aureus by broth microdilution technique. The test is classed as functional, organism-based. To be noted: Staphylococcus aureus; for IC50: read-out: IC50.
The next test relates to Sporothrix schenckii. Nature of the test: Antifungal activity against Sporothrix schenckii by broth microdilution technique. The test is classed as functional, organism-based.
The test system of the next test is Cryptococcus neoformans. Nature of the test: Antifungal activity against Cryptococcus neoformans by broth microdilution technique. The test is classed as functional, organism-based.
The test system of a further test is Candida albicans. Nature of the test: Antifungal activity against Candida albicans by broth microdilution technique. The test is classed as functional, organism-based.
In the next test the test system is Candida parapsilosis. Nature of the test: Antifungal activity against Candida parapsilosis ATCC 22019 by broth microdilution technique. Format: functional, organism-based. Particulars: Lodderomyces parapsilosis.

Converted amounts (≈) assume the structure as drawn.

As for `CCOC(=O)C(C)SC1=C(NCCO)C(=O)c2ccccc2C1=O` (centres undefined), the minimum inhibitory concentration (MIC) was 6.25 mg/L (≈ 17.9 µM) in the test with Enterococcus faecalis; greater than 50 mg/L with Trichophyton benhamiae; 25 mg/L (≈ 71.5 µM) against Pseudomonas aeruginosa; 3.12 mg/L (≈ 8.93 µM) in the test on Escherichia coli; 25 mg/L (≈ 71.5 µM) in the test on Aspergillus fumigatus; 12.5 mg/L (≈ 35.8 µM) against Klebsiella pneumoniae. Moreover, the minimal inhibitory concentration (MIC) in the test with Staphylococcus aureus is 6.25 mg/L (≈ 17.9 µM); in the test on Sporothrix schenckii, 25 mg/L (≈ 71.5 µM); with Cryptococcus neoformans, 12.5 mg/L (≈ 35.8 µM); in the test on Candida albicans it was 25 mg/L (≈ 71.5 µM); with Candida parapsilosis, 25 mg/L (≈ 71.5 µM). Further, the IC50 with Enterococcus faecalis is 5.42 mg/L (≈ 15.5 µM); in the test with Trichophyton benhamiae it was greater than 50 mg/L; in the test on Pseudomonas aeruginosa, 24.5 mg/L (≈ 70.2 µM); with Escherichia coli, 2.24 mg/L (≈ 6.41 µM); in the test on Aspergillus fumigatus, 23.9 mg/L (≈ 68.5 µM); in the test with Klebsiella pneumoniae it was 11.6 mg/L (≈ 33.1 µM). Further, the IC50 in the test with Staphylococcus aureus turned out to be 4.82 mg/L (≈ 13.8 µM); with Sporothrix schenckii, 21.9 mg/L (≈ 62.8 µM); with Cryptococcus neoformans, 6.92 mg/L (≈ 19.8 µM); with Candida albicans, 23.3 mg/L (≈ 66.6 µM); in the test with Candida parapsilosis, 22.5 mg/L (≈ 64.5 µM).

Regarding `CCOC(=O)C(C)SC1=C(NC(C)(C)C)C(=O)c2ccccc2C1=O` (centres undefined), the minimal inhibitory concentration (MIC) with Enterococcus faecalis turned out to be 6.25 mg/L (≈ 17.3 µM); in the test with Trichophyton benhamiae it was 3.12 mg/L (≈ 8.63 µM); in the test on Pseudomonas aeruginosa, 6.25 mg/L (≈ 17.3 µM); with Escherichia coli, 6.25 mg/L (≈ 17.3 µM); against Aspergillus fumigatus it was 25 mg/L (≈ 69.2 µM); against Klebsiella pneumoniae, 6.25 mg/L (≈ 17.3 µM). Moreover, the MIC with Staphylococcus aureus was determined as 6.25 mg/L (≈ 17.3 µM); against Sporothrix schenckii it was 12.5 mg/L (≈ 34.6 µM); against Cryptococcus neoformans, 12.5 mg/L (≈ 34.6 µM); in the test with Candida albicans it was 50 mg/L (≈ 138 µM); in the test with Candida parapsilosis it was 25 mg/L (≈ 69.2 µM). For the same compound, the half-inhibitory concentration (IC50) is 5.62 mg/L (≈ 15.5 µM) in the test on Enterococcus faecalis; 2.8 mg/L (≈ 7.75 µM) with Trichophyton benhamiae; 5.32 mg/L (≈ 14.7 µM) with Pseudomonas aeruginosa; 4.38 mg/L (≈ 12.1 µM) with Escherichia coli; 21.8 mg/L (≈ 60.4 µM) in the test with Aspergillus fumigatus; 4.82 mg/L (≈ 13.3 µM) with Klebsiella pneumoniae. Further, the 50% inhibitory concentration (IC50) in the test on Staphylococcus aureus was determined as 3.98 mg/L (≈ 11 µM); with Sporothrix schenckii it was 10.9 mg/L (≈ 30.2 µM); in the test with Cryptococcus neoformans, 10.3 mg/L (≈ 28.5 µM); with Candida albicans it was 38.3 mg/L (≈ 106 µM); in the test on Candida parapsilosis, 22.2 mg/L (≈ 61.4 µM).

In the case of `Cc1sc2c(=O)c3ccccc3c(=O)c=2n(C)c1O`, the MIC with Enterococcus faecalis came out at 3.12 mg/L (≈ 11.4 µM); against Trichophyton benhamiae, 1.56 mg/L (≈ 5.71 µM); in the test with Pseudomonas aeruginosa, 50 mg/L (≈ 183 µM); with Escherichia coli, 1.56 mg/L (≈ 5.71 µM); against Aspergillus fumigatus it was 6.25 mg/L (≈ 22.9 µM); with Klebsiella pneumoniae, 3.12 mg/L (≈ 11.4 µM). For the same compound, the MIC with Staphylococcus aureus came out at 3.12 mg/L (≈ 11.4 µM); against Sporothrix schenckii, 3.12 mg/L (≈ 11.4 µM); in the test with Cryptococcus neoformans it was 3.12 mg/L (≈ 11.4 µM); against Candida albicans it was 6.25 mg/L (≈ 22.9 µM); against Candida parapsilosis, 12.5 mg/L (≈ 45.7 µM). Moreover, the IC50 in the test on Enterococcus faecalis came to 2.58 mg/L (≈ 9.44 µM); in the test on Trichophyton benhamiae, 0.9 mg/L (≈ 3.29 µM); in the test on Pseudomonas aeruginosa, 49.3 mg/L (≈ 180 µM); in the test with Escherichia coli, 0.96 mg/L (≈ 3.51 µM); with Aspergillus fumigatus it was 3.98 mg/L (≈ 14.6 µM); in the test with Klebsiella pneumoniae, 1.98 mg/L (≈ 7.24 µM). The IC50 in the test with Staphylococcus aureus stood at 1.92 mg/L (≈ 7.02 µM); in the test on Sporothrix schenckii it was 2.84 mg/L (≈ 10.4 µM); in the test with Cryptococcus neoformans, 1.54 mg/L (≈ 5.63 µM); with Candida albicans it was 5.3 mg/L (≈ 19.4 µM); with Candida parapsilosis, 10.4 mg/L (≈ 38 µM).

Take `CC1(C)S[C@@H]2[C@H](NC(=O)[C@H](N)c3ccccc3)C(=O)N2[C@H]1C(=O)O` [AMPICILLIN]: the MIC was 0.02 mg/L (≈ 0.0572 µM) in the test on Enterococcus faecalis, 50 mg/L (≈ 143 µM) with Pseudomonas aeruginosa, 0.09 mg/L (≈ 0.258 µM) in the test on Klebsiella pneumoniae and 0.9 mg/L (≈ 2.58 µM) in the test on Staphylococcus aureus. The IC50 in the test on Enterococcus faecalis was 0.01 mg/L (≈ 0.0286 µM); in the test with Pseudomonas aeruginosa, 48.7 mg/L (≈ 139 µM); in the test on Escherichia coli, 0.01 mg/L (≈ 0.0286 µM); in the test with Klebsiella pneumoniae, 0.08 mg/L (≈ 0.229 µM); in the test on Staphylococcus aureus it was 0.74 mg/L (≈ 2.12 µM).

As for `CCOC(=O)C(C)SC1=C(Cl)C(=O)c2ccccc2C1=O` (centres undefined), the minimal inhibitory concentration (MIC) against Enterococcus faecalis was 12.5 mg/L (≈ 38.5 µM); against Trichophyton benhamiae, greater than 50 mg/L; in the test with Pseudomonas aeruginosa, 50 mg/L (≈ 154 µM); in the test with Escherichia coli, 12.5 mg/L (≈ 38.5 µM); against Aspergillus fumigatus, greater than 50 mg/L; in the test with Klebsiella pneumoniae it was 50 mg/L (≈ 154 µM). Moreover, the MIC in the test with Staphylococcus aureus is 12.5 mg/L (≈ 38.5 µM); against Sporothrix schenckii, 25 mg/L (≈ 77 µM); in the test on Cryptococcus neoformans, 12.5 mg/L (≈ 38.5 µM); against Candida albicans, greater than 50 mg/L; in the test with Candida parapsilosis, greater than 50 mg/L. Also, the IC50 in the test on Enterococcus faecalis is 9.52 mg/L (≈ 29.3 µM); with Trichophyton benhamiae, greater than 50 mg/L; in the test with Pseudomonas aeruginosa, 48.3 mg/L (≈ 149 µM); in the test with Escherichia coli, 6.34 mg/L (≈ 19.5 µM); in the test on Aspergillus fumigatus, greater than 50 mg/L; with Klebsiella pneumoniae, 28.3 mg/L (≈ 87.3 µM). Besides, the IC50 was 7.95 mg/L (≈ 24.5 µM) in the test with Staphylococcus aureus; 22.7 mg/L (≈ 69.8 µM) with Sporothrix schenckii; 11.5 mg/L (≈ 35.3 µM) with Cryptococcus neoformans; greater than 50 mg/L in the test on Candida albicans; greater than 50 mg/L in the test with Candida parapsilosis.

In the case of `CCOC(=O)C(C)SC1=C(N)C(=O)c2ccccc2C1=O` (centres undefined), the minimum inhibitory concentration (MIC) is 12.5 mg/L (≈ 40.9 µM) in the test with Enterococcus faecalis; greater than 50 mg/L against Trichophyton benhamiae; 50 mg/L (≈ 164 µM) in the test with Pseudomonas aeruginosa; 1.56 mg/L (≈ 5.11 µM) against Escherichia coli; 25 mg/L (≈ 81.9 µM) against Aspergillus fumigatus; 12.5 mg/L (≈ 40.9 µM) against Klebsiella pneumoniae. For the same compound, the MIC against Staphylococcus aureus was 6.25 mg/L (≈ 20.5 µM); against Sporothrix schenckii, 25 mg/L (≈ 81.9 µM); against Cryptococcus neoformans it was 12.5 mg/L (≈ 40.9 µM); against Candida albicans it was 25 mg/L (≈ 81.9 µM); in the test on Candida parapsilosis it was 25 mg/L (≈ 81.9 µM). The 50% inhibitory concentration (IC50) with Enterococcus faecalis is 8.54 mg/L (≈ 28 µM); with Trichophyton benhamiae, greater than 50 mg/L; in the test on Pseudomonas aeruginosa, 34.5 mg/L (≈ 113 µM); with Escherichia coli, 1.18 mg/L (≈ 3.86 µM); with Aspergillus fumigatus it was 16.6 mg/L (≈ 54.3 µM); in the test on Klebsiella pneumoniae, 11.7 mg/L (≈ 38.3 µM). For the same compound, the IC50 in the test on Staphylococcus aureus is 6.16 mg/L (≈ 20.2 µM); in the test with Sporothrix schenckii, 17.9 mg/L (≈ 58.7 µM); in the test on Cryptococcus neoformans, 12 mg/L (≈ 39.3 µM); with Candida albicans, 24.2 mg/L (≈ 79.3 µM); in the test on Candida parapsilosis, 21.2 mg/L (≈ 69.6 µM).

In the case of `OC(Cn1cncn1)(Cn1cncn1)c1ccc(F)cc1F` [FLUCONAZOLE], the IC50 in the test with Trichophyton benhamiae is 0.63 mg/L (≈ 2.06 µM); in the test on Aspergillus fumigatus, 1.06 mg/L (≈ 3.46 µM); with Sporothrix schenckii, 1.45 mg/L (≈ 4.73 µM); with Cryptococcus neoformans, 0.46 mg/L (≈ 1.5 µM). Moreover, the MIC in the test on Trichophyton benhamiae was determined as 1 mg/L (≈ 3.27 µM); with Aspergillus fumigatus, 2 mg/L (≈ 6.53 µM); in the test on Sporothrix schenckii it was 2 mg/L (≈ 6.53 µM); in the test with Cryptococcus neoformans it was 1 mg/L (≈ 3.27 µM); against Candida albicans it was 0.5 mg/L (≈ 1.63 µM); in the test on Candida parapsilosis, 1 mg/L (≈ 3.27 µM).
